From PMC11180509 (The Journal of Clinical Endocrinology and Metabolism, 2024) come the findings set out here.

The term Tmax denotes the time from dosing to the highest level. Usually Cmax stands for the highest concentration seen after dosing.

A short description of this data set: Plasma concentration of intact GIP after subcutaneous GIP injection. Type of data set: in vivo, human.

Regarding `CC[C@H](C)[C@H](NC(=O)[C@H](CO)NC(=O)[C@H](Cc1ccc(O)cc1)NC(=O)[C@H](CC(=O)O)NC(=O)[C@H](CO)NC(=O)[C@@H](NC(=O)[C@H](Cc1ccccc1)NC(=O)[C@@H](NC(=O)CNC(=O)[C@H](CCC(=O)O)NC(=O)[C@H](C)NC(=O)[C@@H](N)Cc1ccc(O)cc1)[C@@H](C)O)[C@@H](C)CC)C(=O)N[C@@H](C)C(=O)N[C@@H](CCSC)C(=O)N[C@@H](CC(=O)O)C(=O)N[C@@H](CCCCN)C(=O)N[C@H](C(=O)N[C@@H](Cc1c[nH]cn1)C(=O)N[C@@H](CCC(N)=O)C(=O)N[C@@H](CCC(N)=O)C(=O)N[C@@H](CC(=O)O)C(=O)N[C@@H](Cc1ccccc1)C(=O)N[C@H](C(=O)N[C@@H](CC(N)=O)C(=O)N[C@@H](Cc1c[nH]c2ccccc12)C(=O)N[C@@H](CC(C)C)C(=O)N[C@@H](CC(C)C)C(=O)N[C@@H](C)C(=O)N[C@@H](CCC(N)=O)C(=O)N[C@@H](CCCCN)C(=O)NCC(=O)N[C@@H](CCCCN)C(=O)N[C@@H](CCCCN)C(=O)N[C@@H](CC(N)=O)C(=O)N[C@@H](CC(=O)O)C(=O)N[C@@H](Cc1c[nH]c2ccccc12)C(=O)N[C@@H](CCCCN)C(=O)N[C@@H](Cc1c[nH]cn1)C(=O)N[C@@H](CC(N)=O)C(=O)N[C@H](C(=O)N[C@H](C(=O)N[C@@H](CCC(N)=O)C(=O)O)[C@@H](C)O)[C@@H](C)CC)C(C)C)[C@@H](C)CC` [GIP, Human GIP(1-42)], the “Time until plasma intact GIP returned to basal level” value (fasting men with T2D, n = 10, 200 µg GIP subcutaneous bolus) is “about 150 minutes”. Further, the Tmax (male, human, plasma, sc, 200 ug) was 30 min. Under “male, human, plasma, sc, 200 ug, SEM”, this molecule had a Cmax of 0.055 ± 0.0058 nM.
